Laboratory results: patent US20240246902A1, “PRODRUGS OF 6-DIAZO-5-OXO-L-NORLEUCINE” (THE JOHNS HOPKINS UNIVERSITY, priority 2021, published 2024)
In brackets after ≈: the same amount, converted by molar mass. Like-named read-outs stand apart in the source and are kept apart here.

How the values were obtained:
[1] = Metabolic stability in swine liver tissue homogenate; assay type: in vitro ADME; settings: prodrug 20 μM, 37° C.
Protocol: (§1) The representative Compounds of the Disclosure were screened for metabolic stability in swine jejunum/liver tissue homogenates, following our previously reported methods (Zimmermann et al., J. Med. Chem., 61(9):3918-29 (2018); Tenora et al., J. Med. Chem., 62(7):3524-38 (2019)). In brief, freshly collected tissues were homogenized by probe sonication in 9× volume of 0.1 M potassium phosphate buffer over ice. Post homogenization, prodrugs were spiked at a concentration of 20 μM (in triplicate) and incubated in an orbital shaker at 37° C. for 60 min. Final concentration of DMSO in the incubations was 0.2% v/v. At each time point (0, 30, 60 min), 100 μL of sample was precipitated with 300 μL of methanol containing internal standard (IS; losartan: 0.5 μM). […] After centrifugation, 50 μL of supernatant was diluted with 50 μL of water, vortexed and submitted for analysis. Prodrug disappearance over time was measured using liquid chromatography tandem mass spectrometry (LC-MS/MS).
(§2) The processed supernatants were analyzed on a Thermo Scientific Vanquish UPLC system (equipped with Vanquish autosampler, pumps, and column compartment) hyphenated to TSQ Altis mass spectrometer (Thermo Fisher Scientific Inc., Waltham MA). […] The autosampler was operated at 4° C. […] Peak area ratios obtained from peak area counts of analyte and internal standard were used to measure the disappearance of prodrugs.

[2] = Metabolic stability in swine jejunum (gut) tissue homogenate; assay type: in vitro ADME; settings: prodrug 20 μM, 37° C.
Protocol: as §1, §2

[3] = Plasma stability, plasma from CES1KO mice; settings: CES1KO = Mouse Plasma from CES1KO mice
[4] = Plasma stability, mouse plasma; settings: MP = Mouse Plasma

| Liver stability (% remaining at 60 min) [1] [%] | solubility (Solubility) [µg/mL] | Gut Stability (% remaining at 60 min) [2] [%] | Efflux (Efflux) | Plasma Stability (% remaining at 60 min) [3] | Plasma Stability (% remaining at 60 min) [4] | SMILES | Efflux (Efflux; not told) |
| --- | --- | --- | --- | --- | --- | --- | --- |
| 97 ± 0 |  | 110 ± 2 | 1 |  |  | CC(C)(C)OC(=O)[C@H](CCC(=O)C=[N+]=[N-])NC(=O)C(Cl)Cl [Compound 5i, tert-Butyl (S)-6-diazo-2-(2,2-dichloroacetamido)-5-oxohexanoate] |  |
| 78 ± 1 | ~4000 (≈ 12 mM) | 104 ± 0 |  |  |  | CC(C)(C)OC(=O)[C@H](CCC(=O)C=[N+]=[N-])NC(=O)c1cccnc1 [Compound 5j, tert-Butyl (S)-6-diazo-2-(nicotinamido)-5-oxohexanoate] |  |
| 0 ± 0 |  |  | 49 | 69 ± 3 (ces1KO) % |  | CC(C)OC(=O)[C@H](CCC(=O)C=[N+]=[N-])NC(=O)[C@H](Cc1c[nH]c2ccccc12)NC(=O)C(Cl)Cl [Compound 8n, Isopropyl (S)-6-diazo-2-((S)-2-(2,2-dichloroacetamido)-3-(1H-indol-3-yl)propanamido)-5-oxohexanoate] |  |
| 95 ± 3 |  | 88 ± 4 | 41 |  | 62 ± 1 (MP) % | CC(=O)N[C@@H](Cc1c[nH]c2ccccc12)C(=O)N[C@@H](CCC(=O)C=[N+]=[N-])C(=O)OC(C)(C)C [Compound 11a, tert-Butyl (S)-2-((S)-2-acetamido-3-(1H-indol-3-yl)propanamido)-6-diazo-5-oxohexanoate] |  |
| 80 ± 2 |  | 95 ± 1 | 106 |  |  | CC(C)(C)OC(=O)[C@H](CCC(=O)C=[N+]=[N-])NC(=O)[C@H](Cc1c[nH]c2ccccc12)NC(=O)CN1CCOCC1 [Compound 11c, tert-Butyl (S)-2-((S)-3-(1H-indol-3-yl)-2-(2-morpholinoacetamido)propanamido)-6-diazo-5-oxohexanoate] |  |
| 75 ± 1 |  | 104 ± 2 | 80 |  |  | CN(C)CC(=O)N[C@@H](Cc1cn(C)c2ccccc12)C(=O)N[C@@H](CCC(=O)C=[N+]=[N-])C(=O)OC(C)(C)C [Compound 12a, tert-Butyl (S)-6-diazo-2-((S)-2-(2-(dimethylamino)acetamido)-3-(1-methyl-1H-indol-3-yl)propanamido)-5-oxohexanoate] |  |
| 95 ± 1 |  | 99 ± 2 | 32 |  |  | C[C@H](NC(=O)CN(C)C)C(=O)N[C@@H](CCC(=O)C=[N+]=[N-])C(=O)OC(C)(C)C [Compound 13a, tert-Butyl (S)-6-diazo-2-((S)-2-(2-(dimethylamino)acetamido)propanamido)-5-oxohexanoate] |  |
| 81 ± 2 |  | 90 ± 1 | 48 | 93 ± 1 (ces1KO MP) % | 67 ± 1 (MP) % | CN(C)CC(=O)N[C@@H](Cc1ccccc1)C(=O)N[C@@H](CCC(=O)C=[N+]=[N-])C(=O)OC(C)(C)C [Compound 15a, tert-Butyl (S)-6-diazo-2-((S)-2-(2-(dimethylamino)acetamido)-3-phenylpropanamido)-5-oxohexanoate] |  |
| 87 ± 0 |  | 87 ± 1 | 45 |  |  | CC(C)C[C@H](NC(=O)CN(C)C)C(=O)N[C@@H](CCC(=O)C=[N+]=[N-])C(=O)OC(C)(C)C [Compound 16a, tert-Butyl (S)-6-diazo-2-((S)-2-(2-(dimethylamino)acetamido)-4-methylpentanamido)-5-oxohexanoate] |  |
| 72 ± 0 |  |  | 32.76 | 70 ± 14 (Ces1KO) % | 79 ± 2 (MP) % | CN(C)CC(=O)N[C@@H](Cc1ccc(C(F)(F)F)cc1)C(=O)N[C@@H](CCC(=O)C=[N+]=[N-])C(=O)OC(C)(C)C [Compound 23a, tert-Butyl (S)-6-diazo-2-((S)-2-(2-(dimethylamino)acetamido)-3-(4-(trifluoromethyl)phenyl)propanamido)-5-oxohexanoate] |  |
| 99 ± 1 |  | 92 ± 4 | 16 |  |  | CN(C)CC(=O)NCCC(=O)N[C@@H](CCC(=O)C=[N+]=[N-])C(=O)OC(C)(C)C [Compound 25a, tert-Butyl (S)-6-diazo-2-(3-(2-(dimethylamino)acetamido)propanamido)-5-oxohexanoate] |  |
| 0 ± 0 |  |  | 21 |  |  | COC(=O)[C@H](CCC(=O)C=[N+]=[N-])NC(=O)[C@H](Cc1c[nH]c2ccccc12)NC(=O)CN(C)C [Compound 28a, Methyl (S)-6-diazo-2-((S)-2-(2-(dimethylamino)acetamido)-3-(1H-indol-3-yl)propanamido)-5-oxohexanoate] |  |
| 2 ± 0 |  |  | 10 |  |  | [2H]C([2H])([2H])OC(=O)[C@H](CCC(=O)C=[N+]=[N-])NC(=O)[C@H](Cc1c[nH]c2ccccc12)NC(C)=O [Compound 28b, Methyl-d3 (S)-2-((S)-2-acetamido-3-(1H-indol-3-yl)propanamido)-6-diazo-5-oxohexanoate] |  |
| 1 ± 0 |  |  | 11 |  |  | CC(=O)N[C@@H](Cc1c[nH]c2ccccc12)C(=O)N[C@@H](CCC(=O)C=[N+]=[N-])C(=O)OC(CF)CF [Compound 28c, 1,3-Difluoropropan-2-yl (S)-2-((S)-2-acetamido-3-(1H-indol-3-yl)propanamido)-6-diazo-5-oxohexanoate] |  |

Second part, the molecule before the results:

| SMILES | Liver stability (% remaining at 60 min) [1] [%] | solubility (Solubility) [µg/mL] | Gut Stability (% remaining at 60 min) [2] [%] | Efflux (Efflux) | Plasma Stability (% remaining at 60 min) [3] | Plasma Stability (% remaining at 60 min) [4] | Efflux (Efflux; not told) |
| --- | --- | --- | --- | --- | --- | --- | --- |
| CCCC(=O)N[C@@H](CCC(=O)C=[N+]=[N-])C(=O)OC(C)C [Compound 5b, Isopropyl (S)-2-butyramido-6-diazo-5-oxohexanoate] | 12 ± 1 | ~5000 (≈ 17.6 mM) |  |  |  |  |  |
| CCCCCC(=O)N[C@@H](CCC(=O)C=[N+]=[N-])C(=O)OC(C)C [Compound 5c, Isopropyl (S)-6-diazo-2-hexanamido-5-oxohexanoate] | 0 ± 0 | ~2000 (≈ 6.42 mM) |  |  |  |  |  |
| CC(C)OC(=O)[C@H](CCC(=O)C=[N+]=[N-])NC(=O)CN(C)C [Compound 5d, Isopropyl (S)-6-diazo-2-(2-(dimethylamino)acetamido)-5-oxohexanoate] | 76 ± 0 |  | 98 ± 2 | 2 |  |  |  |
| CC(C)OC(=O)[C@H](CCC(=O)C=[N+]=[N-])NC(=O)c1cccnc1 [Compound 5f, Isopropyl (S)-6-diazo-2-(nicotinamido)-5-oxohexanoate] | 0 ± 0 | ~5000 (≈ 15.7 mM) |  |  |  |  |  |
| CC(=O)N[C@@H](CCC(=O)C=[N+]=[N-])C(=O)OC(C)(C)C [Compound 5g, tert-Butyl (S)-2-acetamido-6-diazo-5-oxohexanoate] | 2 ± 0 |  | 93 ± 1 | 1 |  |  |  |
| COCCOCCOC(=O)[C@H](CCC(=O)C=[N+]=[N-])NC(C)=O [Compound 5m, 2-(2-Methoxyethoxy)ethyl (S)-2-acetamido-6-diazo-5-oxohexanoate] | 57 ± 0 |  | 87 ± 2 | 5 |  |  |  |
| Cn1cc(C[C@H](NC(=O)OC2CN3CCC2CC3)C(=O)N[C@@H](CCC(=O)C=[N+]=[N-])C(=O)OC(C)(C)C)c2ccccc21 (stereo partly drawn) [Compound 12d, tert-Butyl (2S)-6-diazo-2-((2S)-3-(1-methyl-1H-indol-3-yl)-2-(((quinuclidin-3-yloxy)carbonyl)amino)propanamido)-5-oxohexanoate] | 89 ± 1 |  |  |  | 88 ± 2 (Ces1KO) % | 10 ± 2 (MP) % | 65.59 |
| CC(C)(C)OC(=O)[C@H](CCC(=O)C=[N+]=[N-])NC(=O)CNC(=O)CN1CCOCC1 [Compound 14c, tert-Butyl (S)-6-diazo-2-(2-(2-morpholinoacetamido)acetamido)-5-oxohexanoate] | 100 ± 1 |  | 96 ± 1 | 15 |  |  |  |
| CN(C)CC(=O)N[C@@H](CCc1ccccc1)C(=O)N[C@@H](CCC(=O)C=[N+]=[N-])C(=O)OC(C)(C)C [Compound 20a, tert-Butyl (S)-6-diazo-2-((S)-2-(2-(dimethylamino)acetamido)-4-phenylbutanamido)-5-oxohexanoate] | 69 ± 1 |  |  | 61.35 | 102 ± 2 (ces1KO) % | 60 ± 7 (MP) % |  |
| CNC(=O)[C@H](CCC(=O)C=[N+]=[N-])NC(=O)[C@H](Cc1c[nH]c2ccccc12)NC(C)=O [Compound 31b, (S)-2-((S)-2-Acetamido-3-(1H-indol-3-yl)propanamido)-6-diazo-N-methyl-5-oxohexanamide] | 103 ± 4 |  | 90 ± 2 | 1 |  |  |  |
